Measurements reported in publication PMC7144022, “Quinolinecarboxamides Inhibit the Replication of the Bovine Viral Diarrhea Virus by Targeting a Hot Spot for the Inhibition of Pestivirus Replication in the RNA-Dependent RNA Polymerase” (Molecules, 2020).
pEC50: −log10 of the molar value.

Tests used:
[1] = Cytotoxicity assay, proliferation of exponentially growing MDBK cells (MTS/PMS); assay type: cell-based, bovine; details: bovine
Procedure: Assays were carried out, as described previously.

BVDV NADL virus = assay: CPE-based antiviral assay, BVDV NADL in MDBK cells (MTS/PMS); details: for pEC50: Bovine viral diarrhea virus isolates and strains, MDBK, 72 h; for S.I.: selectivity index, CC50 vs EC50
[2] = sheet CSFCI#, potency relative to TO505-6180 (EC50 0.07 µM)
[3] = sheet CSFCII#, potency relative to TO502-2403 (EC50 0.2 µM)

SMILES | CC50 at 5 days [1] | pEC50 (BVDV NADL virus) | S.I. (BVDV NADL virus) | fold increase (BVDV NADL virus; [2]) | fold increase (BVDV NADL virus; [3])
Cc1cccc2sc(NC(=O)c3cc(-c4ccccc4)nc4ccccc34)nc12 [CSFC-1, Cc1cccc2sc(nc12)NC(=O)c1cc(nc2ccccc21)c1ccccc1] | > 100 µM | 6.52 | 333 | 0.23 | –
Cc1ccc2nc(NC(=O)c3cc(-c4ccccc4)nc4ccccc34)sc2c1 [CSFC-2, Cc1ccc2nc(NC(=O)c3cc(nc4ccccc43)c3ccccc3)sc2c1] | > 100 µM | 5.24 | 18 | 0.0123 | –
O=C(Nc1nc2ccccc2[nH]1)c1cc(-c2ccccc2)nc2ccccc12 [CSFC-3, O=C(Nc1nc2ccccc2[NH]1)c1cc(nc2ccccc21)c1ccccc1] | > 100 µM | < 4.00 | 1 | 0.0007 | –
Cn1c(NC(=O)c2cc(-c3ccccc3)nc3ccccc23)nc2ccccc21 [CSFC-4, O=C(Nc1nc2ccccc2n1C)c1cc(nc2ccccc21)c1ccccc1] | > 100 µM | < 4.00 | 1 | 0.0007 | –
O=C(Nc1nc2cc(Cl)ccc2o1)c1cc(-c2ccccc2)nc2ccccc12 [CSFC-5, Clc1cc2nc(NC(=O)c3cc(nc4ccccc43)c3ccccc3)oc2cc1] | > 100 µM | < 4.00 | 1 | 0.0007 | –
O=C(Nc1ccccn1)c1cc(-c2ccccc2)nc2ccccc12 [CSFC-6, O=C(Nc1ccccn1)c1cc(nc2ccccc21)c1ccccc1] | > 100 µM | < 4.00 | 1 | 0.0007 | –
O=C(Nc1cccnc1)c1cc(-c2ccccc2)nc2ccccc12 [CSFC-7, O=C(Nc1cccnc1)c1cc(nc2ccccc21)c1ccccc1] | > 100 µM | < 4.00 | 1 | 0.0007 | –
O=C(Nc1ccncc1)c1cc(-c2ccccc2)nc2ccccc12 [CSFC-8, O=C(Nc1ccncc1)c1cc(nc2ccccc21)c1ccccc1] | > 100 µM | < 4.00 | 1 | 0.0007 | –
COc1ccc2nc(NC(=O)c3cc(-c4ccccc4)nc4ccccc34)sc2c1 [CSFC-9, COc1ccc2nc(NC(=O)c3cc(nc4ccccc43)c3ccccc3)sc2c1] | > 100 µM | 6.52 | 333 | 0.23 | –
O=C(Nc1nc2ccc(Cl)cc2s1)c1cc(-c2ccccc2)nc2ccccc12 [CSFC-10, Clc1ccc2nc(NC(=O)c3cc(nc4ccccc43)c3ccccc3)sc2c1] | > 100 µM | 6.30 | 200 | 0.14 | –
Cc1cc2nc(NC(=O)c3cc(-c4ccccc4)nc4ccccc34)sc2cc1C [CSFC-11, Cc1cc2nc(NC(=O)c3cc(nc4ccccc43)c3ccccc3)sc2cc1C] | > 100 µM | 6.52 | 333 | 0.23 | –
O=C(Nc1nc2ccc([N+](=O)[O-])cc2s1)c1cc(-c2ccccc2)nc2ccccc12 [CSFC-12, [O-][N+](=O)c1ccc2nc(NC(=O)c3cc(nc4ccccc43)c3ccccc3)sc2c1] | 46.8 µM | < 4.00 | 0.5 | 0.0007 | –
O=C(Nc1nc2ccccc2s1)c1cc(-c2ccccc2)nc2ccccc12 [CSFC-13, O=C(Nc1nc2ccccc2s1)c1cc(nc2ccccc21)c1ccccc1] | > 100 µM | 5.92 | – | 0.06 | –
O=C(Nc1nc2ccc(Br)cc2s1)c1cc(-c2ccccc2)nc2ccccc12 [CSFC-14, Brc1ccc2nc(NC(=O)c3cc(nc4ccccc43)c3ccccc3)sc2c1] | > 100 µM | 5.85 | 71 | 0.05 | –
O=C(Nc1nc2c(Cl)cccc2s1)c1cc(-c2ccccc2)nc2ccccc12 [CSFC-15, Clc1cccc2sc(nc21)NC(=O)c1cc(nc2ccccc21)c1ccccc1] | > 100 µM | 6.10 | 125 | 0.09 | –
O=C(Nc1nccs1)c1cc(-c2ccccc2)nc2ccccc12 [CSFC-16, O=C(c1cc(nc2ccccc12)c3ccccc3)Nc4nccs4] | > 100 µM | 4.52 | 3 | – | 0.00667

SMILES | CC50 at 5 days [1] | pEC50 (BVDV NADL virus) | S.I. (BVDV NADL virus) | fold increase (BVDV NADL virus; [2]) | fold increase (BVDV NADL virus; [3])
Cc1ccc2nc(NC(=O)c3ccnc4ccccc34)sc2c1 [CSFC-17, Cc1ccc2nc(sc2c1)NC(=O)c4ccnc3ccccc34] | > 100 µM | 4.00 | 1 | – | 0.002
O=C(Nc1nc2ccc(F)cc2s1)c1cc(-c2ccccc2)nc2ccccc12 [CSFC-18, Fc1ccc2nc(NC(=O)c3cc(nc4ccccc43)c3ccccc3)sc2c1] | > 100 µM | 6.52 | 333 | 0.23 | –
COc1cccc2sc(NC(=O)c3cc(-c4ccccc4)nc4ccccc34)nc12 [CSFC-19, COc1cccc2sc(nc12)NC(=O)c1cc(nc2ccccc21)c1ccccc1] | > 100 µM | 6.40 | 250 | 0.18 | –
Cc1ccc2nc(N(C)C(=O)c3cc(-c4ccccc4)nc4ccccc34)sc2c1 [CSFC-21, O=C(c1cc(nc2ccccc21)c1ccccc1)N(C)c1nc2ccc(C)cc2s1] | > 100 µM | < 4.00 | 1 | 0.0007 | –
Cc1ccc2nc(NC(=O)c3ccncc3)sc2c1 [CSFC-22, Cc1ccc2nc(NC(=O)c3ccncc3)sc2c1] | > 100 µM | < 4.00 | 1 | 0.0007 | –
Cc1ccc2nc(NC(=O)c3cccnc3)sc2c1 [CSFC-23, Cc1ccc2nc(NC(=O)c3cccnc3)sc2c1] | > 100 µM | < 4.00 | 1 | 0.0007 | –
Cc1ccc2nc(NC(=O)c3cccc4ccccc34)sc2c1 [CSFC-24, Cc1ccc2nc(NC(=O)c3cccc4ccccc43)sc2c1] | > 100 µM | < 4.00 | 1 | 0.0007 | –
Cc1ccc2nc(NC(=O)c3ccccn3)sc2c1 [CSFC-25, Cc1ccc2nc(NC(=O)c3ccccn3)sc2c1] | > 100 µM | < 4.00 | 1 | 0.0007 | –
Cc1ccc2nc(NC(=O)c3cc4ccccc4n3C)sc2c1 [CSFC-26, Cn1c2ccccc2cc1C(=O)Nc1nc2ccc(C)cc2s1] | > 100 µM | < 4.00 | 1 | 0.0007 | –
Cc1ccc2nc(NC(=O)c3cc[n+]([O-])cc3)sc2c1 [CSFC-27, [O-][n+]1ccc(cc1)C(=O)Nc1nc2ccc(C)cc2s1] | > 100 µM | < 4.00 | 1 | 0.0007 | –
Cc1ccc2nc(NC(=O)c3cc4ccccc4[nH]3)sc2c1 [CSFC-28, Cc1ccc2nc(NC(=O)c3cc4ccccc4[NH]3)sc2c1] | > 100 µM | < 4.00 | 1 | 0.0007 | –
Cc1ccc2nc(NC(=O)c3ccccc3)sc2c1 [CSFC-29, Cc1ccc2nc(NC(=O)c3ccccc3)sc2c1] | > 100 µM | < 4.00 | 1 | 0.0007 | –
Cc1ccc2nc(NC(=O)c3ncc[nH]3)sc2c1 [CSFC-30, Cc1ccc2nc(NC(=O)c3ncc[NH]3)sc2c1] | > 100 µM | < 4.00 | 1 | 0.0007 | –
Cc1ccc2nc(NC(=O)c3cc(O)nc4ccccc34)sc2c1 [CSFC-31, Oc1nc2ccccc2c(c1)C(=O)Nc1nc2ccc(C)cc2s1] | > 100 µM | < 4.00 | 1 | 0.0007 | –
CC(C)(C)c1cc(NC(=O)c2cc(-c3ccccc3)nc3ccccc23)no1 [CSFC-32, O=C(Nc1cc(on1)C(C)(C)C)c3cc(nc2ccccc23)c4ccccc4] | > 100 µM | 5.14 | 14 | – | 0.0278
Cc1ccc2nc(NC(=O)c3nccn3C)sc2c1 [CSFC-33, Cn1ccnc1C(=O)Nc1nc2ccc(C)cc2s1] | > 100 µM | 4.34 | 2 | 0.00152 | –
